Results published in patent publication US12123010B2, “Plants having increased tolerance to herbicides” (BASF SE, priority 2017, dated 2024).
“And” between values parts separate entries of the source, which are not always exact repeats. Equal values may be shown once.

Columns and labels:
[1] = system: Variant PPO Enzyme L397Q, F420M (Amaranthus PPO2); type: biochemical; conditions: variant L397Q, F420M vs wild type
[2] = system: Variant PPO Enzyme F420M (Amaranthus PPO2); experiment: biochemical; type: biochemical; conditions: variant F420M vs wild type
[3] = system: Variant PPO Enzyme F420V (Amaranthus PPO2); type: biochemical; conditions: variant F420V vs wild type
[4] = system: Variant PPO Enzyme R128A, F420M (Amaranthus PPO2); type: biochemical; conditions: variant R128A, F420M vs wild type
[5] = system: Transgenic T2 or T3 Soybean plants harbouring PPO inhibitor tolerance trait; experiment: Soybean Trial, post spray, injury score 14 DAT; type: in vivo
Procedure: Soybean cv Jake is transformed as previously described by Siminszky et al., Phytochem Rev. 5:445-458 (2006). After regeneration, transformants are transplanted to soil in small pots, placed in growth chambers (16 hr day/8 hr night; 25° C. day/23° C. night; 65% relative humidity; 130-150 microE m-2 s-1) and subsequently tested for the presence of the T-DNA via Taqman analysis. After a few weeks, healthy, transgenic positive, single copy events are transplanted to larger pots and allowed to grow in the growth chamber. An optimal shoot for cutting is about 3-4 inches tall, with at least two nodes present. Each cutting is taken from the original transformant (mother plant) and dipped into rooting hormone powder (indole-3-butyric acid, IBA). The cutting is then placed in oasis wedges inside a bio-dome. The mother plant is taken to maturity in the greenhouse and harvested for seed. Wild type cuttings are also taken simultaneously to serve as negative controls. The cuttings are kept in the bio-dome for 5-7 days and then transplanted to 3 inch pots and then acclimated in the growth chamber for two more days. Subsequently, the cuttings are transferred to the greenhouse, acclimated for approximately 4 days prior to spray. T0 or 2-week old T1 plants are sprayed with a treatment of the uracilpyridines as disclosed SUPRA and photosynthesis inhibitor diuron as negative control. Herbicide injury evaluations are taken at 2, 7, 14 and 21 days after treatment.
Transgenic T2 or T3 Soybean plants harbouring PPO inhibitor tolerance trait, were sprayed post with the indicated amount of uracilpyridine+1% (v/v) MSO. Evaluation performed 14 Days After Treatment (DAT) and shown as injury (0-9) relative to non-transgenic treated plants. Injury Scale: 0-9, 0=no imjury, 9=maximum injury. Note: segregating lines.

[6] = system: Transgenic T2 Arabidopsis plants and ARBTH WT MC24 non-transgenic; experiment: Greenhouse post spray test, injury 14 DAT (Tables ii, iii); type: in vivo, Arabidopsis thaliana; conditions: Arabidopsis thaliana, 336 h;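 further: value is percent injury to the sprayed plants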
[7] = biological target: Wild Type PPO Enzyme (Amaranthus PPO2, SEQ ID NO: 1) (Amaranthus tuberculatus, UniProt Q0NZW9); experiment: PPO enzyme assay (recombinant), wild type; type: biochemical
[8] = system: Transgenic T2 Arabidopsis plants harboring PPO inhibitor tolerance trait; experiment: Lab based germination assay in 48-well plates (Table i); type: in vivo, Arabidopsis thaliana; conditions: construct AMATU_PPO2_TP_hemG (Escherichia coli); in comparison to wild type plants
[9] = system: Variant PPO Enzyme R128A, F420V (Amaranthus PPO2); experiment: biochemical; type: biochemical; conditions: variant R128A, F420V vs wild type

Wild Type PPO Enzyme (Amaranthus PPO2, SEQ ID NO: 1), sequence (Q0NZW9 1-534): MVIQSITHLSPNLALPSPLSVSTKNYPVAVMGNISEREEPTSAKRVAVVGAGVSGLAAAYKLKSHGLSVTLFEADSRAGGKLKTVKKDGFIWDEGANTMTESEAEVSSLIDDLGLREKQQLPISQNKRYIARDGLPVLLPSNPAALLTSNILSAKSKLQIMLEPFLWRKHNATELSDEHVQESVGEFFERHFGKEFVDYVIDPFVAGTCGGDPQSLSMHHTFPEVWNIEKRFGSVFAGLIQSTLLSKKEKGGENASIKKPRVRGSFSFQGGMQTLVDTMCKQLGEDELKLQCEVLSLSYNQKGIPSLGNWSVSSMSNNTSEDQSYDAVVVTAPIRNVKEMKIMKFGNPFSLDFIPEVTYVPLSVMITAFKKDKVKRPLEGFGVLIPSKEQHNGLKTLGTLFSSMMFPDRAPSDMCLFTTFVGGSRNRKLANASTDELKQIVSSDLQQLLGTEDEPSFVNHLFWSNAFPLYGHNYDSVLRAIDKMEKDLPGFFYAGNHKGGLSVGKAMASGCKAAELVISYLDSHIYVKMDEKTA

Question: Which results are given for `CCOC(=O)COc1ncccc1Oc1nc(-n2c(=O)cc(C(F)(F)F)n(C)c2=O)c(F)cc1Cl` [Uracilpyridine 2, ethyl 2-[[3-[[3-chloro-5-fluoro-6-[3-methyl-2,6-dioxo-4-(trifluoromethyl)pyrimidin-1-yl]-2-pyridyl]oxy]-2-pyridyl]oxy]acetate]?
Answer: Tolerance Factor (R/S) [1]: 4843; Tolerance Factor (R/S) [2]: 244 and 415; Tolerance Factor (R/S) [3]: 567; Tolerance Factor (R/S) [4]: 521; injury (0-9) ([5]; L397E, F420M Event 2, 25 g/ha + 1% (v/v) MSO): 0 (No Injury); injury (0-9) ([5]; L397E, F420M Event 2, 50 g/ha + 1% (v/v) MSO): 0 (No Injury); injury (0-9) ([5]; L397E, F420M Event 2, 100 g/ha + 1% (v/v) MSO): 0 (No Injury); injury (0-9) ([5]; L397E, F420V Event 1, 25 g/ha + 1% (v/v) MSO): 0 (No Injury); injury (0-9) ([5]; L397E, F420V Event 1, 50 g/ha + 1% (v/v) MSO): 0 (No Injury); injury (0-9) ([5]; L397E, F420V Event 1, 100 g/ha + 1% (v/v) MSO): 0 (No Injury); injury (0-9) ([5]; L397Q, F420M Event 3, 25 g/ha + 1% (v/v) MSO): 0 (No Injury) and 3; injury (0-9) ([5]; L397Q, F420M Event 3, 50 g/ha + 1% (v/v) MSO): 3; injury (0-9) ([5]; L397Q, F420M Event 3, 100 g/ha + 1% (v/v) MSO): 3 and 2; pest or weed control at 50 g/ha ([6]; Table ii, ALOMY_PPO2_R137L_F438V event F, 50 g ai/ha): 18%; pest or weed control at 100 g/ha ([6]; Table ii, ALOMY_PPO2_R137L_F438V event F, 100 g ai/ha): 18%; pest or weed control at 200 g/ha ([6]; Table ii, ALOMY_PPO2_R137L_F438V event F, 200 g ai/ha): 23%; pest or weed control at 50 g/ha ([6]; Table ii, ALOMY_PPO2_R137L_F438V event G, 50 g ai/ha): 0%; pest or weed control at 100 g/ha ([6]; Table ii, ALOMY_PPO2_R137L_F438V event G, 100 g ai/ha): 10%; pest or weed control at 200 g/ha ([6]; Table ii, ALOMY_PPO2_R137L_F438V event G, 200 g ai/ha): 20%; pest or weed control at 50 g/ha ([6]; Table ii, ALOMY_PPO2_TP_AMATU_PPO2_R128M_F420I event R, 50 g ai/ha): 45%; pest or weed control at 100 g/ha ([6]; Table ii, ALOMY_PPO2_TP_AMATU_PPO2_R128M_F420I event R, 100 g ai/ha): 45%; pest or weed control at 200 g/ha ([6]; Table ii, ALOMY_PPO2_TP_AMATU_PPO2_R128M_F420I event R, 200 g ai/ha): 75%; pest or weed control at 50 g/ha ([6]; Table ii, AMATU_PPO2_R128A_F420M event Q, 50 g ai/ha): 10%; pest or weed control at 100 g/ha ([6]; Table ii, AMATU_PPO2_R128A_F420M event Q, 100 g ai/ha): 15%; pest or weed control at 200 g/ha ([6]; Table ii, AMATU_PPO2_R128A_F420M event Q, 200 g ai/ha): 65%; pest or weed control at 50 g/ha ([6]; Table ii, AMATU_PPO2_R128M_F420I event K, 50 g ai/ha): 18%; pest or weed control at 100 g/ha ([6]; Table ii, AMATU_PPO2_R128M_F420I event K, 100 g ai/ha): 58%; pest or weed control at 200 g/ha ([6]; Table ii, AMATU_PPO2_R128M_F420I event K, 200 g ai/ha): 70%; pest or weed control at 100 g/ha ([6]; Table ii, AMATU_PPO2_TP_hemG event R, 100 g ai/ha): 40%; pest or weed control at 200 g/ha ([6]; Table ii, AMATU_PPO2_TP_hemG event R, 200 g ai/ha): 35%; pest or weed control at 1 g/ha ([6]; Table ii, AMATU_PPO2_WT event Q, 1 g ai/ha): 23%; pest or weed control at 5 g/ha ([6]; Table ii, AMATU_PPO2_WT event Q, 5 g ai/ha): 100%; pest or weed control at 10 g/ha ([6]; Table ii, AMATU_PPO2_WT event Q, 10 g ai/ha): 100%; pest or weed control at 30 g/ha ([6]; Table ii, AMATU_PPO2_WT event Q, 30 g ai/ha): 100%; pest or weed control at 1 g/ha ([6]; Table ii, ARBTH WT MC24 non-transgenic, 1 g ai/ha + 1% MSO): 100%; pest or weed control at 5 g/ha ([6]; Table ii, ARBTH WT MC24 non-transgenic, 5 g ai/ha + 1% MSO): 100%; pest or weed control at 10 g/ha ([6]; Table ii, ARBTH WT MC24 non-transgenic, 10 g ai/ha + 1% MSO): 100%; pest or weed control at 30 g/ha ([6]; Table ii, ARBTH WT MC24 non-transgenic, 30 g ai/ha + 1% MSO): 100%; pest or weed control at 50 g/ha ([6]; Table ii, ARBTH WT MC24 non-transgenic, 50 g ai/ha + 1% MSO): 100%; pest or weed control at 80 g/ha ([6]; Table ii, ARBTH WT MC24 non-transgenic, 80 g ai/ha + 1% MSO): 100%; pest or weed control at 100 g/ha ([6]; Table ii, ARBTH WT MC24 non-transgenic, 100 g ai/ha + 1% MSO): 100%; pest or weed control at 200 g/ha ([6]; Table ii, ARBTH WT MC24 non-transgenic, 200 g ai/ha + 1% MSO): 100%; pest or weed control at 30 g/ha ([6]; Table ii, ARBTH_PPO1_S305L_Y426M event O, 30 g ai/ha): 33%; pest or weed control at 50 g/ha ([6]; Table ii, ARBTH_PPO1_S305L_Y426M event O, 50 g ai/ha as printed (row position suggests 5)): 0%; pest or weed control at 80 g/ha ([6]; Table ii, ARBTH_PPO1_S305L_Y426M event O, 80 g ai/ha): 45%; pest or weed control at 100 g/ha ([6]; Table ii, ARBTH_PPO1_S305L_Y426M event O, 100 g ai/ha as printed (row position suggests 10)): 0%; pest or weed control at 1 g/ha ([6]; Table ii, ARBTH_PPO1_WT event Q, 1 g ai/ha): 15%; pest or weed control at 5 g/ha ([6]; Table ii, ARBTH_PPO1_WT event Q, 5 g ai/ha): 100%; pest or weed control at 10 g/ha ([6]; Table ii, ARBTH_PPO1_WT event Q, 10 g ai/ha): 100%; pest or weed control at 30 g/ha ([6]; Table ii, ARBTH_PPO1_WT event Q, 30 g ai/ha): 100%; pest or weed control at 50 g/ha ([6]; Table iii, ALOMY_PPO2_R137L_F438M (unnamed lines), 50 g ai/ha): 0%; pest or weed control at 100 g/ha ([6]; Table iii, ALOMY_PPO2_R137L_F438M (unnamed lines), 100 g ai/ha): 0%; pest or weed control at 50 g/ha ([6]; Table iii, ALOMY_PPO2_R137L_F438V (unnamed lines), 50 g ai/ha): 0%; pest or weed control at 100 g/ha ([6]; Table iii, ALOMY_PPO2_R137L_F438V (unnamed lines), 100 g ai/ha): 0%; pest or weed control at 50 g/ha ([6]; Table iii, AMATU_PPO2_L397E_F420M (unnamed lines), 50 g ai/ha): 0%; pest or weed control at 100 g/ha ([6]; Table iii, AMATU_PPO2_L397E_F420V (unnamed lines), 100 g ai/ha): 0%; pest or weed control at 100 g/ha ([6]; Table iii, AMATU_PPO2_L397Q_F420V (unnamed lines), 100 g ai/ha): 80%; pest or weed control at 50 g/ha ([6]; Table iii, ARBTH WT MC 24 (non-transgenic), 50 g ai/ha + 1% MSO): 100%; pest or weed control at 100 g/ha ([6]; Table iii, ARBTH WT MC 24 (non-transgenic), 100 g ai/ha + 1% MSO): 100%; IC50 [7]: 0.187 nM; Tolerance Factor [8]: 6400; Tolerance Factor (R/S) [9]: 796 and 1105
